Assay results: patent US10597388B2, “Pyridazinone herbicides” (FMC CORPORATION, priority 2014, dated 2020)

Legend:
Assay in all cases: Test D controlled growth environment herbicide test, pre- and postemergence
Format in all cases: in vivo
[1] = tested on: Russian thistle (Salsola kali)
Summary of the method: (§1)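 Pre-emergence: seeds sown in silt loam soil were sprayed with compound in a non-phytotoxic solvent mix containing surfactant. Post-emergence: plants at 2 to 18 cm (1- to 4-leaf stage) in peat moss/vermiculite medium got the same formulation. Visual 0–100 rating versus controls after 14 to 21 d.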

[2] = tested on: barley, spring (spring barley, Hordeum vulgare)
Summary of the method: as §1

[3] = tested on: bluegrass (annual bluegrass, Poa annua)
Summary of the method: as §1

[4] = tested on: deadnettle (henbit deadnettle, Lamium amplexicaule)
Summary of the method: as §1

[5] = tested on: field violet (Viola arvensis)
Summary of the method: as §1

[6] = tested on: foxtail, green (green foxtail, Setaria viridis)
Summary of the method: as §1

[7] = tested on: kochia (Kochia scoparia)
Summary of the method: as §1

[8] = tested on: mustard, wild (wild mustard, Sinapis arvensis)
Summary of the method: as §1

[9] = tested on: oat, wild (wild oat, Avena fatua)
Summary of the method: as §1

[10] = tested on: pigweed (Amaranthus retroflexus)
Summary of the method: as §1

[11] = tested on: wheat, spring (spring wheat, Triticum aestivum)
Summary of the method: as §1

[12] = tested on: wheat, winter (winter wheat, Triticum aestivum)
Summary of the method: as §1

[13] = tested on: windgrass (Apera spica-venti)
Summary of the method: as §1

[14] = Postemergence, 31 g ai/ha, scale 0 to 100 (0 no effect, 100 complete control)
[15] = Postemergence, 125 g ai/ha, visual rating on scale 0 (no effect) to 100 (complete control), 14 to 21 d
[16] = Postemergence, 250 g ai/ha, scale 0 to 100 (0 no effect, 100 complete control)
[17] = Preemergence, 125 g ai/ha, scale 0 to 100 (0 no effect, 100 complete control)
[18] = Preemergence, 250 g ai/ha, scale 0 to 100 (0 no effect, 100 complete control)
[19] = postemergence, 62 g ai/ha, scale 0 to 100, 0 no effect, 100 complete control
[20] = Preemergence, 62 g ai/ha, scale 0 to 100 (0 no effect, 100 complete control)

Structure (SMILES): CC(=O)Oc1c(Br)nn(C)c(=O)c1-c1c(C)ccc2ccccc12 [Compound 129]
- Russian Thistle plant response rating [1, 14]: 70
- Plant response rating, Russian Thistle [1, 15]: 85
- Plant response rating, Russian Thistle [1, 16]: 90
- Plant response rating (scale of 0 to 100), Russian Thistle ([1]; Preemergence, 31 g ai/ha): 10
- Plant response rating (scale of 0 to 100), Russian Thistle ([1]; Preemergence, 62 g ai/ha): 50
- Plant response rating, Russian Thistle [1, 17]: 100
- Plant response rating, Russian Thistle [1, 18]: 100
- Plant response rating, Russian Thistle [1, 19]: 80
- Barley, Spring plant response rating [2, 14]: 20
- Plant response rating, Barley, Spring [2, 15]: 30
- Plant response rating, Barley, Spring [2, 16]: 30
- Plant response rating (scale of 0 to 100), Barley, Spring ([2]; Preemergence, 31 g ai/ha): 0
- Plant response rating, Barley, Spring [2, 20]: 0
- Plant response rating, Barley, Spring [2, 17]: 0
- Plant response rating, Barley, Spring [2, 18]: 20
- Plant response rating, Barley, Spring [2, 19]: 25
- Bluegrass plant response rating [3, 14]: 10
- Plant response rating, Bluegrass [3, 15]: 20
- Plant response rating, Bluegrass [3, 16]: 30
- Plant response rating (scale of 0 to 100), Bluegrass ([3]; Preemergence, 31 g ai/ha): 0
- Plant response rating, Bluegrass [3, 20]: 10
- Plant response rating, Bluegrass [3, 17]: 25
- Plant response rating, Bluegrass [3, 18]: 60
- Plant response rating, Bluegrass [3, 19]: 15
- Deadnettle plant response rating [4, 14]: 35
- Plant response rating, Deadnettle [4, 15]: 70
- Plant response rating, Deadnettle [4, 16]: 95
- Plant response rating (scale of 0 to 100), Deadnettle ([4]; Preemergence, 31 g ai/ha): 60
- Plant response rating (scale of 0 to 100), Deadnettle ([4]; Preemergence, 62 g ai/ha): 75
- Plant response rating, Deadnettle [4, 17]: 75
- Plant response rating, Deadnettle [4, 18]: 95
- Plant response rating, Deadnettle [4, 19]: 40
- Field Violet plant response rating [5, 14]: 65
- Plant response rating, Field Violet [5, 15]: 70
- Plant response rating, Field Violet [5, 16]: 75
- Plant response rating (scale of 0 to 100), Field Violet ([5]; Preemergence, 31 g ai/ha): 85
- Plant response rating (scale of 0 to 100), Field Violet ([5]; Preemergence, 62 g ai/ha): 85
- Plant response rating, Field Violet [5, 17]: 85
- Plant response rating, Field Violet [5, 18]: 100
- Plant response rating, Field Violet [5, 19]: 70
- Foxtail, Green plant response rating [6, 14]: 80
- Plant response rating, Foxtail, Green [6, 15]: 85
- Plant response rating, Foxtail, Green [6, 16]: 95
- Plant response rating (scale of 0 to 100), Foxtail, Green ([6]; Preemergence, 31 g ai/ha): 35
- Plant response rating (scale of 0 to 100), Foxtail, Green ([6]; Preemergence, 62 g ai/ha): 70
- Plant response rating, Foxtail, Green [6, 17]: 80
- Plant response rating, Foxtail, Green [6, 18]: 95
- Plant response rating, Foxtail, Green [6, 19]: 80
- Kochia plant response rating [7, 14]: 60
- Plant response rating, Kochia [7, 15]: 80
- Plant response rating, Kochia [7, 16]: 85
- Plant response rating (scale of 0 to 100), Kochia ([7]; Preemergence, 31 g ai/ha): 5
- Plant response rating (scale of 0 to 100), Kochia ([7]; Preemergence, 62 g ai/ha): 55
- Plant response rating, Kochia [7, 17]: 85
- Plant response rating, Kochia [7, 18]: 100
- Plant response rating, Kochia [7, 19]: 70
- Mustard, Wild plant response rating [8, 14]: 80
- Plant response rating, Mustard, Wild [8, 15]: 98
- Plant response rating, Mustard, Wild [8, 16]: 100
- Plant response rating (scale of 0 to 100), Mustard, Wild ([8]; Preemergence, 31 g ai/ha): 75
- Plant response rating (scale of 0 to 100), Mustard, Wild ([8]; Preemergence, 62 g ai/ha): 100
- Plant response rating, Mustard, Wild [8, 17]: 100
- Plant response rating, Mustard, Wild [8, 18]: 100
- Plant response rating, Mustard, Wild [8, 19]: 80
- Oat, Wild plant response rating [9, 14]: 90
- Plant response rating, Oat, Wild [9, 15]: 95
- Plant response rating, Oat, Wild [9, 16]: 100
- Plant response rating (scale of 0 to 100), Oat, Wild ([9]; Preemergence, 31 g ai/ha): 75
- Plant response rating (scale of 0 to 100), Oat, Wild ([9]; Preemergence, 62 g ai/ha): 75
- Plant response rating, Oat, Wild [9, 17]: 90
- Plant response rating, Oat, Wild [9, 18]: 100
- Plant response rating, Oat, Wild [9, 19]: 90
- Pigweed plant response rating [10, 14]: 98
- Plant response rating, Pigweed [10, 15]: 100
- Plant response rating, Pigweed [10, 16]: 100
- Plant response rating (scale of 0 to 100), Pigweed ([10]; Preemergence, 31 g ai/ha): 100
- Plant response rating (scale of 0 to 100), Pigweed ([10]; Preemergence, 62 g ai/ha): 100
- Plant response rating, Pigweed [10, 17]: 100
- Plant response rating, Pigweed [10, 18]: 98
- Plant response rating, Pigweed [10, 19]: 98
- Wheat, Spring plant response rating [11, 14]: 25
- Plant response rating, Wheat, Spring [11, 15]: 50
- Plant response rating, Wheat, Spring [11, 16]: 70
- Plant response rating (scale of 0 to 100), Wheat, Spring ([11]; Preemergence, 31 g ai/ha): 25
- Plant response rating (scale of 0 to 100), Wheat, Spring ([11]; Preemergence, 62 g ai/ha): 50
- Plant response rating, Wheat, Spring [11, 17]: 60
- Plant response rating, Wheat, Spring [11, 18]: 75
- Plant response rating, Wheat, Spring [11, 19]: 35
- Wheat, Winter plant response rating [12, 14]: 30
- Plant response rating, Wheat, Winter [12, 15]: 40
- Plant response rating, Wheat, Winter [12, 16]: 55
- Plant response rating (scale of 0 to 100), Wheat, Winter ([12]; Preemergence, 31 g ai/ha): 10
- Plant response rating (scale of 0 to 100), Wheat, Winter ([12]; Preemergence, 62 g ai/ha): 35
- Plant response rating, Wheat, Winter [12, 17]: 45
- Plant response rating, Wheat, Winter [12, 18]: 60
- Plant response rating, Wheat, Winter [12, 19]: 35
- Windgrass plant response rating [13, 14]: 20
- Plant response rating, Windgrass [13, 15]: 55
- Plant response rating, Windgrass [13, 16]: 90
- Plant response rating (scale of 0 to 100), Windgrass ([13]; Preemergence, 31 g ai/ha): 35
- Plant response rating (scale of 0 to 100), Windgrass ([13]; Preemergence, 62 g ai/ha): 45
- Plant response rating, Windgrass [13, 17]: 75
- Plant response rating, Windgrass [13, 18]: 80
- Plant response rating, Windgrass [13, 19]: 35
